In data set [1] the target is T1, human Src kinase (Homo sapiens, UniProt P12931).
T1 construct: full length recombinant human Src kinase (from Upstate Biotechnology, cat. no. 14-117); purchased Upstate Biotechnology 14-117; host or cells: baculo viral cells
The data set can be described thus: SRC inhibition assay (radioactivity-based or spectrophotometric assay). The following applies: recombinant human Src kinase, assay A or B. The class given is biochemical. The protocol: The compounds were evaluated as inhibitors of human Src kinase using either a radioactivity-based assay or spectrophotometric assay. The compounds were assayed as inhibitors of full length recombinant human Src kinase (from Upstate Biotechnology, cat. no. 14-117) expressed and purified from baculo viral cells. […] P-0275). […] In a typical assay, all the reaction components with the exception of ATP were pre-mixed and aliquoted into assay plate wells. […] The assay plate was incubated at 30° C. for 10 min before initiating the reaction with ^33P-ATP. After 20 min of reaction, the reactions were quenched with 150 μl of 10% trichloroacetic acid (TCA) containing 20 mM Na3PO4. The quenched samples were then transferred to a 96-well filter plate (Whatman, UNI-Filter GF/F Glass Fiber Filter, cat no. 7700-3310) installed on a filter plate vacuum manifold. Filter plates were washed four times with 10% TCA containing 20 mM Na3PO4 and then 4 times with methanol. 200 μl of scintillation fluid was then added to each well. The plates were sealed and the amount of radioactivity associated with the filters was quantified on a TopCount scintillation counter. The radioactivity incorporated was plotted as a function of the inhibitor concentration. The data was fitted to a competitive inhibition kinetics model to get the Ki for the compound. The ADP produced from ATP by the human recombinant Src kinase-catalyzed phosphorylation of poly Glu-Tyr substrate was quanitified using a coupled enzyme assay (Fox et al (1998) Protein Sci 7, 2249). In this assay one molecule of NADH is oxidised to NAD for every molecule of ADP produced in the kinase reaction. The disappearance of NADH can be conveniently followed at 340 nm. […] In a typical assay, all the reaction components with the exception of ATP were pre-mixed and aliquoted into assay plate wells. […] The absorbance change at 340 nm with time, the rate of the reaction, was monitored on a molecular devices plate reader. The data of rate as a function of the inhibitor concentration was fitted to competitive inhibition kinetics model to get the Ki for the compound.

For data set [2], the target named is T2, GSK-3β (AA 1-420) (Homo sapiens, UniProt P49841).
T2 construct: GSK-3β (AA 1-420)
The data set can be described thus: Ki determination for the inhibition of GSK-3 (coupled enzyme system). The class given is biochemical. The note with it: 20 μM ATP, 20 nM GSK-3β, 30° C. Put shortly:
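GSK-3β (AA 1-420, 20 nM) was run in a pyruvate kinase/LDH-coupled NADH assay in 100 mM HEPES pH 7.5, 10 mM MgCl2, 25 mM NaCl, 1 mM DTT, 1.5% DMSO, with 300 μM phosphopeptide substrate. Compound (0.002–30 μM) was preincubated 10 min at 30° C, then 20 μM ATP was added.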

In data set [3] the target is T3, Aurora-2 (Homo sapiens, UniProt O14965).
T3 sequence (O14965 1-403): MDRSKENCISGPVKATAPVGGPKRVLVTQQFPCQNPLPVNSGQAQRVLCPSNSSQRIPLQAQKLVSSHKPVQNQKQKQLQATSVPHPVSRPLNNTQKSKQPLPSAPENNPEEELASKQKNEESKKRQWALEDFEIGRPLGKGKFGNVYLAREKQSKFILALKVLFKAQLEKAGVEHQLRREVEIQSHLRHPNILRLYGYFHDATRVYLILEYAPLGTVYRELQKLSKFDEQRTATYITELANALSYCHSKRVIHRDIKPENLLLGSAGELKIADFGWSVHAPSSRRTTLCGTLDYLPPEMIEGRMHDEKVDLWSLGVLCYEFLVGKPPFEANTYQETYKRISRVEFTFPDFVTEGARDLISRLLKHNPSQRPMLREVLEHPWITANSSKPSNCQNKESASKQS
The data set is described as follows: Ki determination for the inhibition of Aurora-2 (coupled enzyme assay). The class given is biochemical. The following applies: 70 nM Aurora-2, 30° C. The procedure, abridged:
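Ki came from reaction rates plotted against inhibitor concentration, with rates taken as A340 decrease over 5 min at 30° C. Enzyme (70 nM final) was added after 10 min compound preincubation; stock buffer held […], 800 μM LRRASLG, PK/LDH coupling, pH 7.5.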

Read-outs that look alike come from different tables or passages of the source.

A word on the Ki: it is a measure of affinity in units of concentration, obtained from inhibition or displacement. A word on the melting point: it is the temperature, or range, at which the solid turns liquid.

T1 sequence (P12931 whole entry): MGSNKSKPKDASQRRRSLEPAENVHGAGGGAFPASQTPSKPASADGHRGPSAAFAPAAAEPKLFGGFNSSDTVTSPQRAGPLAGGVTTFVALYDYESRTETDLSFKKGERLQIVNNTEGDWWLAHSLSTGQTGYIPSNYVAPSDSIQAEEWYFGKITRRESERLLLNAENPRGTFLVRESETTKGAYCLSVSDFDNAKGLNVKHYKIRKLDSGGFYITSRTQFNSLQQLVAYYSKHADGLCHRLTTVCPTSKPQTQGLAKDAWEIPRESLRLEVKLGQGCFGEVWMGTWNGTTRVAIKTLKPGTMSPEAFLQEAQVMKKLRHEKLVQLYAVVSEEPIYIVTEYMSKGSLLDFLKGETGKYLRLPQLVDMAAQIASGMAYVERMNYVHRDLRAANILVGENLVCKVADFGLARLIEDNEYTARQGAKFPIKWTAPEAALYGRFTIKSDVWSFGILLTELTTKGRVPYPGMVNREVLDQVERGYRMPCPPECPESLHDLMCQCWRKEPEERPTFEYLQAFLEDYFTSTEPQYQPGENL
T2 sequence (P49841 whole entry, the tested form may be a part): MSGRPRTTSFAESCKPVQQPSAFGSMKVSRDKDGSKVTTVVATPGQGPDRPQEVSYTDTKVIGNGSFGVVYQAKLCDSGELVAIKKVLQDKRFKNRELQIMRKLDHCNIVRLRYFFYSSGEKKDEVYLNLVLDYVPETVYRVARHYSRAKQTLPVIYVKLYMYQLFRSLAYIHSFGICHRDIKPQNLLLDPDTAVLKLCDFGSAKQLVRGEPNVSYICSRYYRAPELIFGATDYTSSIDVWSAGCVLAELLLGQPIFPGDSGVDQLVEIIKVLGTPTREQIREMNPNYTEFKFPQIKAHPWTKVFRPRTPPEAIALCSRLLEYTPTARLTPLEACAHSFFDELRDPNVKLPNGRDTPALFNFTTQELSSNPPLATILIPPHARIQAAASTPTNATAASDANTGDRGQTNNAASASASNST

As to `c1ccc(-c2cc(Nc3cc(C4CC4)[nH]n3)nc(Sc3ccc4ccccc4c3)n2)cc1` [IIIa-1, (5-Cyclopropyl-2H-pyrazol-3-yl)-[2-(naphtalen-2-ylsulfanyl)-6-phenylpyrimidin-4-yl]-amine], the melting point was 233 to 234 °C. The Ki in data set [1] (read-out: Ki value on SRC) was under 100 nM. For the same compound, in data set [2], the Ki fell in the range of 100 to 1000 nM.

In the case of `Cc1cc(Nc2cc(-c3ccccc3)nc(Sc3ccc(NC(=O)C(C)C)cc3)n2)n[nH]1` [IIIa-13, [2-(4-Isobutyrylylamino-phenylsulfanyl)-6-phenylpyrimidin-4-yl]-(5-methyl-2H-pyrazol-3-yl)-amine], the melting point lay in the range of 201 to 202 °C. Besides, in data set [1] (read-out: Ki value for SRC), the Ki fell in the range of 1000 to 6000 nM.

`CC(=O)Nc1ccc(Sc2nc(Nc3cc(C)[nH]n3)c(C)c(-c3ccccc3)n2)cc1` [IIIa-21, [2-(4-Acetamido-phenyl-sulfanyl)-5-methyl-6-phenyl-pyrimidin-4-yl]-(5-methyl-2H-pyrazol-3-yl)-amine] showed a melting point of 276 to 277 °C. Further, the Ki in data set [1] (read-out: Ki value for SRC) was in the range of 1000 to 6000 nM. Further, the inhibition constant (Ki) in data set [2] was 1000 to 7000 nM.

Consider `Cc1cc(Nc2cc(-c3ccccc3)nc(Sc3ccc(NC(=O)CN(C)C)cc3)n2)n[nH]1` [IIIa-25, {2-[4-(2-Dimethylamino-acetylamino)-phenylsulfanyl]-6-phenyl-pyrimidin-4-yl}-(5-methyl-2H-pyrazol-3-yl)-amine], for which the melting point was 213 to 215 °C. Further, the Ki in data set [1] (read-out: Ki value for SRC) was 1000 to 6000 nM.

With `CC(=O)Nc1ccc(Sc2nc(Nc3cc(C)n[nH]3)cc(N3CCOCC3)n2)cc1` [IIIa-44, [2-(4-Acetamidophenylsulfanyl)-6-(morpholin-4-yl)-pyrimidin-4-yl]-(5-methyl-2H-pyrazol-3-yl)-amine], the Ki in data set [1] (read-out: Ki value for SRC) was in the range of 1000 to 6000 nM.

`CC(=O)Nc1ccc(Nc2nc(Nc3cc(C)[nH]n3)c3ccccc3n2)cc1C` [IIc-48, [2-(4-acetamido-3-methylphenylamino)-quinazolin-4-yl]-(5-methyl-2H-pyrazol-3-yl)-amine]: the melting point came out at 251 °C. Further, the Ki in data set [2] lay within 100 to 1000 nM. The Ki in data set [3] was under 100 nM.

`c1ccc2c(c1)CC(Nc1nc(Nc3cc(C4CC4)[nH]n3)c3ccccc3n1)C2` [IIc-49, (5-Cyclopropyl-2H-pyrazol-3-yl)-[2-(indan-2-ylamino)-quinazolin-4-yl]-amine] showed a melting point of 233 to 234 °C. Also, in data set [2], the Ki lay in the range of 100 to 1000 nM. In data set [3], this compound yielded a Ki of under 100 nM.

Turning to `Cc1cccc(Nc2nc(Nc3cc(C)[nH]n3)c3ccccc3n2)c1` [IIc-50, [2-(3-Methylphenylamino)-quinazolin-4-yl]-(5-methyl-2H-pyrazol-3-yl)-amine], the melting point lay in the range of 240 to 242 °C. The Ki in data set [2] lay in the range of 100 to 1000 nM. The Ki in data set [3] was under 100 nM.

`c1ccc2c(Nc3cc(C4CC4)[nH]n3)nc(Nc3ccc(N4CCOCC4)cc3)nc2c1` [IIc-52, (5-Cyclopropyl-2H-pyrazol-3-yl)-{2-[4-(morpholin-1-yl)phenylamino]-quinazolin-4-yl}-amine] gave a melting point of 275 to 276 °C. The same compound showed a Ki in data set [2] of 100 to 1000 nM. In addition, the Ki in data set [3] was under 100 nM.

Consider `Cc1cc(Nc2nc(Nc3ccc(C)c(C)c3)nc3ccccc23)n[nH]1` [IIc-54, [2-(3,4-Dimethylphenylamino)-quinazolin-4-yl]-(5-methyl-2H-pyrazol-3-yl)-amine], for which the melting point was in the range of 249 to 251 °C. The compound further gave a Ki in data set [2] of 100 to 1000 nM. Also, in data set [3], the Ki is under 100 nM.

For the compound `CCc1cccc(Nc2nc(Nc3cc(C)[nH]n3)c3ccccc3n2)c1` [IIc-55, [2-(3-Ethylphenylamino)-quinazolin-4-yl]-(5-methyl-2H-pyrazol-3-yl)-amine], the melting point fell in the range of 238 to 239 °C. In data set [2], this compound gave a Ki of 100 to 1000 nM. In data set [3], the Ki is under 100 nM.

With `CC(=O)Nc1ccc(Nc2nc(Nc3cc(C)[nH]n3)c3ccccc3n2)cc1C#N` [IIc-57, [2-(4-Acetamido-3-cyanophenylamino)-quinazolin-4-yl]-(5-methyl-2H-pyrazol-3-yl)-amine], the melting point lay in the range of 294 to 296 °C. This compound also returned a Ki in data set [2] of 100 to 1000 nM. In addition, in data set [3], the inhibition constant (Ki) is under 100 nM.

`CC(=O)Nc1ccc(Nc2nc(Nc3cc(C)[nH]n3)c3ccccc3n2)cc1` [IIc-59, [2-(4-Acetamidophenylamino)-quinazolin-4-yl]-(5-methyl-2H-pyrazol-3-yl)-amine] showed a melting point of 253 to 256 °C. This compound also showed a Ki in data set [2] of 100 to 1000 nM. The Ki in data set [3] is under 100 nM.

As for `Cc1cc(Nc2nc(Nc3ccc(NC(=O)OC(C)(C)C)cc3)nc3ccccc23)n[nH]1` [IIc-60, [2-(4-tert-Butoxycarbonylamino-phenylamino)-quinazolin-4-yl]-(5-methyl-2H-pyrazol-3-yl)-amine], the melting point lay in the range of 238 to 242 °C. The same compound showed an inhibition constant (Ki) in data set [2] of 1000 to 7000 nM. In addition, in data set [3], the inhibitory constant (Ki) was under 100 nM.

`Cc1cc(Nc2nc(Nc3ccc(C#N)cc3)nc3ccccc23)n[nH]1` [IIc-61, [2-(4-Cyanophenylamino)-quinazolin-4-yl]-(5-methyl-2H-pyrazol-3-yl)-amine]: the melting point is 293 to 298 °C. For the same compound, the inhibition constant (Ki) in data set [2] was under 100 nM. This compound had a Ki in data set [3] of under 100 nM.

On to `Cc1cc(Nc2nc(Nc3cccc(-c4ccccc4)c3)nc3ccccc23)n[nH]1` [IIc-63, [2-(Biphenyl-3-ylamino)-quinazolin-4-yl]-(5-methyl-2H-pyrazol-3-yl)-amine], for which the melting point was in the range of 206 to 207 °C. In data set [2], this compound displayed a Ki of 100 to 1000 nM. Moreover, the Ki in data set [3] was under 100 nM.

For the compound `COC(=O)Cc1ccc(Nc2nc(Nc3cc(C)[nH]n3)c3ccccc3n2)cc1C` [IIc-64, [2-(4-Methoxycarbonylmethyl-3-methylphenylamino)-quinazolin-4-yl]-(5-methyl-2H-pyrazol-3-yl)-amine], the melting point lay within 245 to 246 °C. In addition, the Ki in data set [2] was 100 to 1000 nM. In addition, the Ki in data set [3] is under 100 nM.

For the compound `Cc1cc(Nc2nc(Nc3ccc(CC(=O)O)c(C)c3)nc3ccccc23)n[nH]1` [IIc-65, [2-(4-Carboxymethyl-3-methylphenylamino)-quinazolin-4-yl]-(5-methyl-2H-pyrazol-3-yl)-amine], the melting point is 245 °C (dec.). Moreover, the Ki in data set [2] fell in the range of 100 to 1000 nM. The compound further came in with an inhibition constant Ki in data set [3] of under 100 nM.

With `Cc1cc(Nc2nc(Nc3ccc(Br)cc3)nc3ccccc23)n[nH]1` [IIc-67, [2-(4-Bromophenylamino)-quinazolin-4-yl]-(5-methyl-2H-pyrazol-3-yl)-amine], the melting point lay in the range of 290 to 293 °C. In data set [2], the inhibition constant (Ki) is under 100 nM. Moreover, the Ki in data set [3] was under 100 nM.

Compound `CCc1cc(Nc2nc(Nc3cc(CC)[nH]n3)c3ccccc3n2)n[nH]1` [IIc-69, (5-Ethyl-2H-pyrazol-3-yl)-[2-(5-ethyl-2H-pyrazol-3-ylamino)-quinazolin-4-yl]-amine] registered a melting point of 248 to 252 °C. The compound also gave a Ki in data set [2] of 1000 to 7000 nM. Moreover, in data set [3], the Ki is under 100 nM.

In turn, `c1ccc(Cc2nc(Nc3cc(C4CC4)[nH]n3)c3ccccc3n2)cc1` [IId-3, (2-Benzyl-quinazolin-4-yl)-(5-cyclopropyl-2H-pyrazol-3-yl)-amine] registered a melting point of 219 to 221 °C. The inhibition constant (Ki) in data set [2] was 1000 to 7000 nM. For the same compound, the Ki in data set [3] was under 100 nM.

The record behind these values is patent US6653300B2, “Pyrazole compounds useful as protein kinase inhibitors” (Vertex Pharmaceuticals Incorporated, priority 2000, dated 2003).
